Counter-ions that a name gives are not always drawn.
How the values were obtained:
[1] = tested on: E. coli UBMS 89-1 (tetM); assay: MIC, microtiter broth dilution; assay type: cell-based; conditions: Escherichia coli, 18 h
Protocol: (§1) The minimum inhibitory concentration (MIC), the lowest concentration of the antibiotic which inhibits growth of the test organism, is determined by the microtiter broth dilution method using 0.1 ml Muller-Hinton II broth (Baltimore Biological Laboratories) per well. A suitable oxygen scavenger (i.e., cysteine or dithiothreitol) is added to the assay medium for the testing of compounds according to Formula I because of the sensitivity of those compounds to oxidation. An inoculum level of 1-5×10^5 CFU/ml and a range of antibiotic concentrations (32 0.004 μg/ml) are used.

[2] = tested on: E. coli UBMS 89-2 (tetracycline-sensitive); assay: MIC, microtiter broth dilution; assay type: cell-based; conditions: Escherichia coli, 18 h, no cysteine stated
Protocol: as §1

[3] = tested on: E. coli UBMS 90-4 (tetM); assay: MIC, microtiter broth dilution; assay type: cell-based; conditions: Escherichia coli, 18 h
Protocol: as §1

[4] = tested on: E. faecalis AMV 120 (tetM); assay: MIC, microtiter broth dilution; assay type: cell-based; conditions: Enterococcus faecalis, 18 h
Protocol: as §1

[5] = tested on: E. faecalis PAM 211 (tetN); assay: MIC, microtiter broth dilution; assay type: cell-based; conditions: Enterococcus faecalis, 18 h
Protocol: as §1

[6] = tested on: M. morganii NEMC 87-119; assay: MIC, microtiter broth dilution; assay type: cell-based; conditions: Morganella morganii, NEMC87119, 18 h, no cysteine stated
Protocol: as §1

[7] = tested on: X. maltophilia FPOR 87-210; assay: MIC, microtiter broth dilution; assay type: cell-based; conditions: Stenotrophomonas maltophilia, FPOR87210, 18 h, no cysteine stated
Protocol: as §1

[8] = tested on: S. aureus UBMS 88-7 (tetK); assay: microbe, parasite or virus in culture; assay type: cell-based; conditions: Staphylococcus aureus, 18 h
Protocol: as §1

[9] = tested on: E. coli S30 Ribosomes, Wild Type (tetracycline sensitive); assay: In vitro protein translation with E. coli S30 ribosomes, wild type; assay type: biochemical
Protocol: (§2) The E. coli in vitro translation system can be used to study not only the mechanism of protein translation itself, but also the effect that various compounds may have on protein synthesis. The system can be set up to function as a coupled transcription and translation system or as a translation only system depending on whether DNA or RNA is added to initiate protein synthesis. In this way, compounds affecting either RNA synthesis and/or protein synthesis can be studied. Protein synthesis is monitored by the incorporation of radiolabeled amino acids into trichloroacetic acid precipitable material. The system used is based upon literature methods [G. Zubay, Ann. Rev. Genet., 7: 267-287(1973) and J. Collins, Gene, 6: 28-42 (1979)].
(§3) The system used to study tetracycline protein synthesis inhibition is as follows:
(§4) An S30 extract (supernatant from a 30,000×G centrifugation of lysed cells) of either tetracycline sensitive or tetracycline resistant (tetM+) cells is combined with a mixture of low molecular weight compounds required for protein synthesis which include a mixture of 19 amino acids, methionine, ^35 S-methionine, plasmid template DNA and either dimethylsulfoxide (DMSO) or the tetracycline to be tested dissolved and diluted in DMSO. This mixture is incubated at 37° C. for 30 minutes. Following the incubation, 2.5 μl of the 10 μl reaction is removed and added to 0.5 ml of 1N sodium hydroxide. The solution is incubated an additional 15 minutes at 37° C., to destroy any m-RNA and t-RNA. The incorporation of ^35 S-methionine is determined by precipitating the high molecular weight material in the sodium hydroxide aliquot with trichloroacetic acid (TCA), collecting the precipitated material on Whatman G/FC filters, drying the filters and counting the radioactivity retained on the filter. Percent inhibition (P.I.) of protein synthesis is determined by the following equation: [formula]

[10] = tested on: E. coli S30 Ribosomes, tetM Variant (tetM protected ribosomes); assay: In vitro protein translation with E. coli S30 ribosomes, tetM variant; assay type: biochemical
Protocol: as §2, §3, §4

[11] = tested on: tetracycline sensitive and resistant Gram-positive and Gram-negative bacteria; assay: In vitro antibacterial evaluation, statements on the whole panel; assay type: cell-based; conditions: in the presence of cysteine versus without
Protocol: as §1

[12] = Wild Type S30 no DTT, 1.0 mg/ml
[13] = Wild Type S30 no DTT, 1:2 Dilution
[14] = Wild Type S30 no DTT, 1:4 Dilution
[15] = Wild Type S30 no DTT, 1:8 Dilution
[16] = Wild Type S30 no DTT, 1:16 Dilution
[17] = Wild Type S30 no DTT, 1:32 Dilution
[18] = Wild Type S30 no DTT, 1:64 Dilution
[19] = Wild Type S30 with DTT, 1.0 mg/ml
[20] = Wild Type S30 with DTT, 1:2 Dilution
[21] = Wild Type S30 with DTT, 1:4 Dilution
[22] = Wild Type S30 with DTT, 1:8 Dilution
[23] = Wild Type S30 with DTT, 1:16 Dilution
[24] = Wild Type S30 with DTT, 1:32 Dilution
[25] = Wild Type S30 with DTT, 1:64 Dilution
[26] = coupled transcription and translation system
[27] = tetM S30 with DTT, 1:2 Dilution
[28] = tetM S30 with DTT, 1:4 Dilution
[29] = tetM S30 with DTT, 1:8 Dilution
[30] = tetM S30 with DTT, 1:16 Dilution
[31] = tetM S30 with DTT, 1:32 Dilution
[32] = tetM S30 with DTT, 1:64 Dilution

Molecule `CN(C)c1ccc(O)c2c1C[C@H]1C[C@H]3[C@H](N(C)C)C(O)=C(C(N)=O)C(=O)[C@@]3(O)C(O)=C1C2=O` [B, 7-(Dimethylamino)-6-demethyl-6-deoxytetracycline hydrochloride] has an MIC [1] of 8 µg/mL, an MIC [2] of 0.5 µg/mL and an MIC [3] greater than 32 µg/mL. It also gave an MIC [4] of 16 µg/mL, an MIC [5] of 16 µg/mL and an MIC [6] of 2 µg/mL. The MIC [7] was 0.06 µg/mL, the MIC [8] was 0.03 µg/mL and the “% Inhibition” value [9, 12] was 87%. For the same molecule, the Counts [9, 12] was 57696, the “% Inhibition” value [9, 13] was 83% and the Counts [9, 13] was 76804. The “% Inhibition” value [9, 14] was 88%, the Counts [9, 14] was 53400 and the “% Inhibition” value [9, 15] was 64%. For the same molecule, the Counts [9, 15] was 162405, the “% Inhibition” value [9, 16] was 53% and the Counts [9, 16] was 213077. For the same molecule, the “% Inhibition” value [9, 17] was 33%, the Counts [9, 17] was 306650 and the “% Inhibition” value [9, 18] was 0%. The Counts [9, 18] was 457601, the “% Inhibition” value [9, 19] was 93% and the Counts [9, 19] was 58885. The “% Inhibition” value [9, 20] was 91%, the Counts [9, 20] was 78961 and the “% Inhibition” value [9, 21] was 87%. The Counts [9, 21] was 111971, the “% Inhibition” value [9, 22] was 83% and the Counts [9, 22] was 149792. The “% Inhibition” value [9, 23] was 76%, the Counts [9, 23] was 207484 and the “% Inhibition” value [9, 24] was 67%. The Counts [9, 24] was 289304, the “% Inhibition” value [9, 25] was 41% and the Counts [9, 25] was 518601. The “inhibition of protein synthesis on wild type ribosomes (in words)” value [9, 26] was “effectively inhibit protein synthesis”, the “inhibition of protein synthesis on tetM protected ribosomes (in words)” value [10, 26] was “unable to inhibit protein synthesis” and the “% Inhibition” value ([10]; tetM S30 no DTT, 1.0 mg/ml) was 0%. The Counts ([10]; tetM S30 no DTT, 1.0 mg/ml) was 281528, the “% Inhibition” value ([10]; tetM S30 no DTT, 1:2 Dilution) was 0% and the Counts ([10]; tetM S30 no DTT, 1:2 Dilution) was 258633. The “% Inhibition” value ([10]; tetM S30 no DTT, 1:4 Dilution) was 0%, the Counts ([10]; tetM S30 no DTT, 1:4 Dilution) was 248904 and the “% Inhibition” value ([10]; tetM S30 no DTT, 1:8 Dilution) was 0%. The Counts ([10]; tetM S30 no DTT, 1:8 Dilution) was 289595, the “% Inhibition” value ([10]; tetM S30 no DTT, 1:16 Dilution) was 0% and the Counts ([10]; tetM S30 no DTT, 1:16 Dilution) was 287498. For the same molecule, the “% Inhibition” value ([10]; tetM S30 no DTT, 1:32 Dilution) was 0%, the Counts ([10]; tetM S30 no DTT, 1:32 Dilution) was 262329 and the “% Inhibition” value ([10]; tetM S30 no DTT, 1:64 Dilution) was 0%. For the same molecule, the Counts ([10]; tetM S30 no DTT, 1:64 Dilution) was 249242, the “% Inhibition” value ([10]; tetM S30 with DTT, 1.0 mg/ml) was 17% and the Counts ([10]; tetM S30 with DTT, 1.0 mg/ml) was 371475. For the same molecule, the “% Inhibition” value [10, 27] was 26%, the Counts [10, 27] was 331439 and the “% Inhibition” value [10, 28] was 17%. For the same molecule, the Counts [10, 28] was 373168, the “% Inhibition” value [10, 29] was 6% and the Counts [10, 29] was 421533. The “% Inhibition” value [10, 30] was 0%, the Counts [10, 30] was 493679 and the “% Inhibition” value [10, 31] was 0%. The Counts [10, 31] was 490283, the “% Inhibition” value [10, 32] was 0% and the Counts [10, 32] was 452837. For the same molecule, the “Antibacterial potency in the presence of cysteine” value [11] was “not enhanced”.

From patent US5281628A, “9-amino-7-(substituted)-6-demethyl-6-deoxytetracyclines” (American Cyanamid Company, priority 1991, dated 1994)
